Laboratory results taken from ChEMBL document CHEMBL4507268 (2021).

Columns and labels:
Settings in all cases: Compound concentration 1000.0 nM
[1] = target: Tyrosine-protein kinase ABL2 (Homo sapiens) (UniProt P42684)
[2] = target: Phosphatidylinositol 4-phosphate 3-kinase C2 domain-containing subunit beta (Homo sapiens) (UniProt O00750)
[3] = target: 5'-AMP-activated protein kinase catalytic subunit alpha-2 (Homo sapiens) (UniProt P54646)
[4] = target: T1, Serine/threonine-protein kinase Nek3 (Homo sapiens) (UniProt P51956)
T1 sequence (whole entry): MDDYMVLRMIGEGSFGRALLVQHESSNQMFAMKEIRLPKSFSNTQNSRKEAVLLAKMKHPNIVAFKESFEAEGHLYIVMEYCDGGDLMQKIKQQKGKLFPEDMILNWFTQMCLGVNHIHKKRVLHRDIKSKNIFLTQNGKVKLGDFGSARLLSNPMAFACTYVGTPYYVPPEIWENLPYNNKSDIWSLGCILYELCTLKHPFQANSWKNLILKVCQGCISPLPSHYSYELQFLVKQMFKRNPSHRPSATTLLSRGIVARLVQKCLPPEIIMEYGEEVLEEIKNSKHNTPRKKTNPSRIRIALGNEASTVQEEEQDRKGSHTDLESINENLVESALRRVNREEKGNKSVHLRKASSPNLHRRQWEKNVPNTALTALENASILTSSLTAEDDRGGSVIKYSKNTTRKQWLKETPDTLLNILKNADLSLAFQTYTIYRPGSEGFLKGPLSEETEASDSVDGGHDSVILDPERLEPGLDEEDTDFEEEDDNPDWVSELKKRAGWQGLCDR

[5] = target: Serine/threonine-protein kinase DCLK1 (Homo sapiens) (UniProt O15075)
[6] = target: T2, Cyclin-dependent kinase-like 2 (Homo sapiens) (UniProt Q92772)
T2 sequence (whole entry): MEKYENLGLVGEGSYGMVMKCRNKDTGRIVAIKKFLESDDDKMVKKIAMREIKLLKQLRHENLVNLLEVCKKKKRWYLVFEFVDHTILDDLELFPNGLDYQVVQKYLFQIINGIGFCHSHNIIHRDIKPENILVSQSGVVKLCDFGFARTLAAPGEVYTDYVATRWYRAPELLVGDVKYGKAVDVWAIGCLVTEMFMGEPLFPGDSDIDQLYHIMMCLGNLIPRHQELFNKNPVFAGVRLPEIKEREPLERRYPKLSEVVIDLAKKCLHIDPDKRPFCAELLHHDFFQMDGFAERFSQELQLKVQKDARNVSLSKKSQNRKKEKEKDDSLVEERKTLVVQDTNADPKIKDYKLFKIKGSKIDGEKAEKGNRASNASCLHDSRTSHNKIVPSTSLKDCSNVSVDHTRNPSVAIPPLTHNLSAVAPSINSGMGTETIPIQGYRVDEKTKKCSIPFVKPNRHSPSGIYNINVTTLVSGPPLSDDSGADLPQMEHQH

[7] = target: Serine/threonine-protein kinase SIK1 (Homo sapiens) (UniProt P57059)
[8] = system: Epidermal growth factor receptor (Homo sapiens), P00533 [L858R,T790M]
[9] = target: Angiopoietin-1 receptor (Homo sapiens) (UniProt Q02763)
[10] = target: Serine/threonine-protein kinase tousled-like 2 (Homo sapiens) (UniProt Q86UE8)
[11] = target: T3, NUAK family SNF1-like kinase 1 (Homo sapiens) (UniProt O60285)
T3 sequence (whole entry): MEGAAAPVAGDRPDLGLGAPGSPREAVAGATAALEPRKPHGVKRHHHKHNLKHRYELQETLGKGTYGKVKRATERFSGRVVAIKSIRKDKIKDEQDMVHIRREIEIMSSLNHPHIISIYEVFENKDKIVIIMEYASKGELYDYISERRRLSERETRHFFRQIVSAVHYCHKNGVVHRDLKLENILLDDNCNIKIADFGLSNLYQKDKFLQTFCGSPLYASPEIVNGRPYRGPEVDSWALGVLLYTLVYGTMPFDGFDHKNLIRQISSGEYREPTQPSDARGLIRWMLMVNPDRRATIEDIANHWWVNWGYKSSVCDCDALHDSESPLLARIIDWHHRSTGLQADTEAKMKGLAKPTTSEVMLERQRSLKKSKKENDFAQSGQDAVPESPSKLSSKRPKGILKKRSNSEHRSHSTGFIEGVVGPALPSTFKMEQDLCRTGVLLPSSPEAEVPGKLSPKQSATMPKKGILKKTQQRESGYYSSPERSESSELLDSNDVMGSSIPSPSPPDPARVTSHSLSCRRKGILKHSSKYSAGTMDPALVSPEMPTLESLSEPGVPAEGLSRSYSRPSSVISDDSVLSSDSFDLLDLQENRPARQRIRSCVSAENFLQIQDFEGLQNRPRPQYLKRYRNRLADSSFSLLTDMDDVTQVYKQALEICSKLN

[12] = target: T4, Serine/threonine-protein kinase TBK1 (Homo sapiens) (UniProt Q9UHD2)
T4 sequence (whole entry): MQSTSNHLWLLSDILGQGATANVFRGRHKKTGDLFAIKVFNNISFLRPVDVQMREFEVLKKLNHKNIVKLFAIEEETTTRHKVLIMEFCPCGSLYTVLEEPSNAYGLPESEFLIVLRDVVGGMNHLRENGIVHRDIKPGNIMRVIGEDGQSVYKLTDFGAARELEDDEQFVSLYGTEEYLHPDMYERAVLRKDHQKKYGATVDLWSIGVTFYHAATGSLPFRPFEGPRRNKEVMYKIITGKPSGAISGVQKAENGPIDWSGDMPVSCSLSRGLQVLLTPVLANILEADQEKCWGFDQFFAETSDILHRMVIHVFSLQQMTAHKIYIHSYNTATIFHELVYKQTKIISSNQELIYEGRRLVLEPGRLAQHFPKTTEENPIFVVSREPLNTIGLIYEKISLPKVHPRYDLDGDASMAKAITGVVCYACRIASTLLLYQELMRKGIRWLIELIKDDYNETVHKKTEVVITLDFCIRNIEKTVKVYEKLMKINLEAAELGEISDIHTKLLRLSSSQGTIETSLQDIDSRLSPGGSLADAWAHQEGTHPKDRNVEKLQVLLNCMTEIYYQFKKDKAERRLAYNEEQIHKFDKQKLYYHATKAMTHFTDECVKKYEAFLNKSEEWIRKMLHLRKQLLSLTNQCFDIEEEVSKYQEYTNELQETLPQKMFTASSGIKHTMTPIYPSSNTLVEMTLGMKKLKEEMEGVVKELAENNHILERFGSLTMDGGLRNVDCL

[13] = target: Leukocyte tyrosine kinase receptor (Homo sapiens) (UniProt P29376)
Leukocyte tyrosine kinase receptor (Homo sapiens), sequence (P29376 whole entry): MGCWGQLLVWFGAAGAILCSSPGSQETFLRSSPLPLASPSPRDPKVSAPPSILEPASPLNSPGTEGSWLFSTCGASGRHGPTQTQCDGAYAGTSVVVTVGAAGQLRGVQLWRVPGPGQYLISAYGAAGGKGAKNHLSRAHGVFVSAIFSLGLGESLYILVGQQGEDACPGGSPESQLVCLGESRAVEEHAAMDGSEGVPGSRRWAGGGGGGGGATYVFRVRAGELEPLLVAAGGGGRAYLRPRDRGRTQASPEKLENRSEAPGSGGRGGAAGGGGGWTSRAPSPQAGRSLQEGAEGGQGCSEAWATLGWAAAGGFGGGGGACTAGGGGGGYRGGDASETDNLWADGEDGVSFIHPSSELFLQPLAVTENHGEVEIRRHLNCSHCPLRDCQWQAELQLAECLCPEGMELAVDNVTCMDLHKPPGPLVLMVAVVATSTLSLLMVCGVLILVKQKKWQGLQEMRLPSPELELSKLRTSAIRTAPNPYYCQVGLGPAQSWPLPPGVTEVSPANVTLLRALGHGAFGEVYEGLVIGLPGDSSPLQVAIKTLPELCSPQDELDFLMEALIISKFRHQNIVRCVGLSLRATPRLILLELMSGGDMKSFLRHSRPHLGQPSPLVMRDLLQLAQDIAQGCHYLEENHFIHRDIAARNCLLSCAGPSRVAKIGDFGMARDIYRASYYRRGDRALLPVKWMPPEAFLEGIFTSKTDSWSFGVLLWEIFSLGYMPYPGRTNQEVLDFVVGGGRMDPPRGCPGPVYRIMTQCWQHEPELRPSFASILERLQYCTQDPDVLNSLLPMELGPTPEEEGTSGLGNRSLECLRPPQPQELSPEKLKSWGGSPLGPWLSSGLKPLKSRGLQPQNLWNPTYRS

Serine/threonine-protein kinase tousled-like 2 (Homo sapiens), sequence (Q86UE8 whole entry, looked up): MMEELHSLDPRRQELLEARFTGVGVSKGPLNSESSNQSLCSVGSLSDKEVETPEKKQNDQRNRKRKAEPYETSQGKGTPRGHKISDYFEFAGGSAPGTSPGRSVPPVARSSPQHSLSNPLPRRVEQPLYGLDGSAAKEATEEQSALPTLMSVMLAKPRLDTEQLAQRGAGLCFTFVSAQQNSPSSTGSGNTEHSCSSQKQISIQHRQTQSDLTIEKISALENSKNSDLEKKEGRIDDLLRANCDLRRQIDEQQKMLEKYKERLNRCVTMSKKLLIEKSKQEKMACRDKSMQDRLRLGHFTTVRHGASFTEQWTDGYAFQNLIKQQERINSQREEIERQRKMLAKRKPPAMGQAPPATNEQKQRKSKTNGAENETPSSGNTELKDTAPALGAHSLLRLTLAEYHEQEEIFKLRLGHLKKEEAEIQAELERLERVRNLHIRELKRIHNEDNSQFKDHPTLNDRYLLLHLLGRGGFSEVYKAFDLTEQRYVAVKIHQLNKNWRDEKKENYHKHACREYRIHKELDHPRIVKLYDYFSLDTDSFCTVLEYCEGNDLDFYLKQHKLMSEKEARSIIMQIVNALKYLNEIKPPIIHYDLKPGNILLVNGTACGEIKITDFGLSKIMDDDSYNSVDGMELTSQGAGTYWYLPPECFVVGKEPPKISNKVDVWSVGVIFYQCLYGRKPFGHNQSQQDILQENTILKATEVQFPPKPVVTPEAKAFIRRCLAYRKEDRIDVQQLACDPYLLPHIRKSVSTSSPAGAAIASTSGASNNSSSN
Serine/threonine-protein kinase DCLK1 (Homo sapiens), sequence (O15075 whole entry): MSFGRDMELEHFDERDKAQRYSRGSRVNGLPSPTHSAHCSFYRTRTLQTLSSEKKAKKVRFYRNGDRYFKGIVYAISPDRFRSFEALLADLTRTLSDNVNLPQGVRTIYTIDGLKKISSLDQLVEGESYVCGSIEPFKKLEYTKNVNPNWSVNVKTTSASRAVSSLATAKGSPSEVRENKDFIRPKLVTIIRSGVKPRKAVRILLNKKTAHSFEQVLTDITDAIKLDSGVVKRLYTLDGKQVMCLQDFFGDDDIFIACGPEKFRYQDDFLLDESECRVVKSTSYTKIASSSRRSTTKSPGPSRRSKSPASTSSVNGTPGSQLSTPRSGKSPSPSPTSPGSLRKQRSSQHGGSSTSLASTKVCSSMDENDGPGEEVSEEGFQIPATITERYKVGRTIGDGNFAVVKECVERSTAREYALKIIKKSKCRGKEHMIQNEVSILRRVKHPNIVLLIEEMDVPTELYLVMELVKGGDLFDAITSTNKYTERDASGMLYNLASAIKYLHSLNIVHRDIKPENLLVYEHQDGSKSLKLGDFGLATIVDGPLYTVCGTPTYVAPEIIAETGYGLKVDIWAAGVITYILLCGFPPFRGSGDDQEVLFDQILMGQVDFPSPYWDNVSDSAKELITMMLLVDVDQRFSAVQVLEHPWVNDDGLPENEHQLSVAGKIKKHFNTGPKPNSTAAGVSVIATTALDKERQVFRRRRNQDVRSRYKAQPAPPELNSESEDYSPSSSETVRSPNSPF
Tyrosine-protein kinase ABL2 (Homo sapiens), sequence (P42684 whole entry, the tested form may be a part): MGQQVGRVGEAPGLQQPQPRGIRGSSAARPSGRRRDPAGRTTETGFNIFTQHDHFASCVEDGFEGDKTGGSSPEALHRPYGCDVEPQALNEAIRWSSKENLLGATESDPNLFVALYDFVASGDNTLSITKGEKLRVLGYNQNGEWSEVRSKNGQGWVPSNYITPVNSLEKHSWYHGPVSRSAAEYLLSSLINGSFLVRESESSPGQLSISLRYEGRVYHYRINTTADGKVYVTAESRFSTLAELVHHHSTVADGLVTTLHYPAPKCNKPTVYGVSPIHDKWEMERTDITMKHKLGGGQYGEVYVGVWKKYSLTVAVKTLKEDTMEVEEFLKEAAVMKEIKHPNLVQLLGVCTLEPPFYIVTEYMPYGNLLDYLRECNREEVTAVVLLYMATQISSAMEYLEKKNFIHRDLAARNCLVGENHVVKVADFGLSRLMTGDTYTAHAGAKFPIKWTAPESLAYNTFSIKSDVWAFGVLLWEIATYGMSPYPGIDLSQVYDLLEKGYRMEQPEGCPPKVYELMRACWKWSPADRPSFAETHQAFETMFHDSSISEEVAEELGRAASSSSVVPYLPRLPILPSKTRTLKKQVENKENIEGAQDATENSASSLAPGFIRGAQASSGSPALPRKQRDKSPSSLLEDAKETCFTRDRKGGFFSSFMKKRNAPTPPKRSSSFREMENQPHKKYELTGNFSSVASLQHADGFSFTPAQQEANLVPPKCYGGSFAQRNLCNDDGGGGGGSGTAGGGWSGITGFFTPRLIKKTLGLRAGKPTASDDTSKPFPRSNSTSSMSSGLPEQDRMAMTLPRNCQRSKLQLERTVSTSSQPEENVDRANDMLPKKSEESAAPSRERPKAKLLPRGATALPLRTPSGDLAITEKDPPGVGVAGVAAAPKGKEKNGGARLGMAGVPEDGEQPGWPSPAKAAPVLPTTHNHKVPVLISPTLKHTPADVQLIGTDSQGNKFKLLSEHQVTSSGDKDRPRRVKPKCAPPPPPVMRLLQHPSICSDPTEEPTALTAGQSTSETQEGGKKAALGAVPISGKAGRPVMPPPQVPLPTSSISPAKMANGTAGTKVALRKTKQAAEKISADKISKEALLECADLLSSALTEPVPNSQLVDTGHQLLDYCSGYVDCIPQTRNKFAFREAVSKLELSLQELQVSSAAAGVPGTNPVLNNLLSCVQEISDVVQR
5'-AMP-activated protein kinase catalytic subunit alpha-2 (Homo sapiens), sequence (P54646 whole entry, looked up): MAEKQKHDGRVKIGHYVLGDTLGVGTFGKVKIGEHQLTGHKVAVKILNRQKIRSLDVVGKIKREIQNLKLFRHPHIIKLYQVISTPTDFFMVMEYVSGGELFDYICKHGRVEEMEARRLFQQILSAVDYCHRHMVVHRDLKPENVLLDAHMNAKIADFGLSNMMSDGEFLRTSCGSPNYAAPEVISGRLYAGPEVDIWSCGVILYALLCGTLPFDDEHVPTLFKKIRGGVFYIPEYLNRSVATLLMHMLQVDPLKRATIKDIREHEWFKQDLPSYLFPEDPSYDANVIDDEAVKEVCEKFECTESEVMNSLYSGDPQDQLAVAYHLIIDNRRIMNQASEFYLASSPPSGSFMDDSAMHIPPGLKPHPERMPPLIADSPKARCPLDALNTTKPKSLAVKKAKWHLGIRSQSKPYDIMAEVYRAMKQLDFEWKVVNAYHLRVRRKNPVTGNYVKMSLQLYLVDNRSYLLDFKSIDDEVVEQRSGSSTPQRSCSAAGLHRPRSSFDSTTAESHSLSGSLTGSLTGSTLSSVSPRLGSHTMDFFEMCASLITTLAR
Serine/threonine-protein kinase SIK1 (Homo sapiens), sequence (P57059 whole entry): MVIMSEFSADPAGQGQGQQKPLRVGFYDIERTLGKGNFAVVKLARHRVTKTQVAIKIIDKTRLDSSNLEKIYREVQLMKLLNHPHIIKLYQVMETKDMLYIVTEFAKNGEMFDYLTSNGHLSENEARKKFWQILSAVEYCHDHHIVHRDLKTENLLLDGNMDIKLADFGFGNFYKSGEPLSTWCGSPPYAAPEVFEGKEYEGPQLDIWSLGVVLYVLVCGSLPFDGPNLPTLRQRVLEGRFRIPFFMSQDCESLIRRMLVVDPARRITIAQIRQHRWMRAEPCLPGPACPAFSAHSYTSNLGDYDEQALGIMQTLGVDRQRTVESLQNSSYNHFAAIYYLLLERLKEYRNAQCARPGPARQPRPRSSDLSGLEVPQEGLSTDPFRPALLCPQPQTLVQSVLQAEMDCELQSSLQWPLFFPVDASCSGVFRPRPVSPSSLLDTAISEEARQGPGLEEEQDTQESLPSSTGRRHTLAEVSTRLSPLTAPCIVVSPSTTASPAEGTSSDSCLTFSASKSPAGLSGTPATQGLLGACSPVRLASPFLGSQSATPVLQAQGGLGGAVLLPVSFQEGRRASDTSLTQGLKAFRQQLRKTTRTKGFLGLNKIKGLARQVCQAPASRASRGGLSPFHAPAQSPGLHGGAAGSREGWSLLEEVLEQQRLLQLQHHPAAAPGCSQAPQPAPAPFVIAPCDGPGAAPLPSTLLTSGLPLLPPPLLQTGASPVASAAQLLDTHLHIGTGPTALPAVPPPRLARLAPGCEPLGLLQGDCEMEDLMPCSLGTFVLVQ

| SMILES | residual activity [1] | residual activity [2] | residual activity [3] | residual activity [4] | residual activity [5] | residual activity [6] | residual activity [7] | residual activity [8] | residual activity [9] | residual activity [10] | residual activity [11] | residual activity [12] | residual activity [13] |
| --- | --- | --- | --- | --- | --- | --- | --- | --- | --- | --- | --- | --- | --- |
| CN1CCN(c2cnc3c(C4CCN(C(=O)c5ccc(OC(F)(F)F)cc5N)CC4)ncnc3c2)CC1 [BAY-885] | 100% | 98% | 100% | 97% | 85% | 100% | 92% | 95% | 74% | 89% | 100% | 61% | 49% |
| Cc1nc(C2CCN(C(=O)c3ccc(OC(F)(F)F)cc3N)CC2)c2ncc(N3CCN(C)CC3)cc2n1 [BAY-693] | 93% | 86% | 100% | 89% | 85% | 100% | 100% | 88% | 81% | 100% | 95% | 100% | 86% |
